The source of these data is ChEMBL document CHEMBL6092162, “Identification of novel and potent triazoles targeting CYP51 for antifungal: Design, synthesis, and biological study” (Eur J Med Chem, 2024).

≈ marks a conversion by molar mass, not a printed value.

One may read the MIC80 as an inhibitory concentration at the 80% level, which refers to growth in some studies and to a panel of isolates in others.

In the first assay the test system is Candida albicans. Put plainly: Antifungal activity against Candida albicans SC5314 assessed as inhibition of fungal growth by CLSI M27-A3 guidelines based method.
Details: not given
In kind it is functional.
In the case of `CN(Cc1ccc(N2CCN(Cc3cccc(I)c3)CC2)cc1)CC(O)(Cn1cncn1)c1ccc(F)cc1F` (stereo unspecified), the MIC80 amounted to 0.25 µg/mL (≈ 0.38 µM).
Still for that read-out and setting: for `CCC(=O)N1CCN(c2ccc(CN(C)CC(O)(Cn3cncn3)c3ccc(F)cc3F)cc2)CC1` (stereo unspecified) the value was 0.25 µg/mL (≈ 0.501 µM); for `CN(Cc1ccc(N2CCN(Cc3cccc(Cl)c3)CC2)cc1)CC(O)(Cn1cncn1)c1ccc(F)cc1F` (stereo unspecified), 0.025 µg/mL (≈ 0.0441 µM).
`CN(Cc1ccc(N2CCN(Cc3cccc(F)c3)CC2)cc1)CC(O)(Cn1cncn1)c1ccc(F)cc1F` (stereo unspecified): the MIC80 is 0.05 µg/mL (≈ 0.0908 µM).
On the same count and under the same terms, as for `CN(Cc1ccc(N2CCN(Cc3ccc(-c4ccccc4)cc3)CC2)cc1)CC(O)(Cn1cncn1)c1ccc(F)cc1F` (stereo unspecified), the figure is 0.025 µg/mL (≈ 0.0411 µM).
Same read-out and setting: as for `CN(Cc1ccc(N2CCN(Cc3ccc(Br)cc3)CC2)cc1)CC(O)(Cn1cncn1)c1ccc(F)cc1F` (stereo unspecified), the figure is 0.025 µg/mL (≈ 0.0409 µM).

Another assay relates to Candida albicans. As to the kind of experiment: Antifungal activity against Candida albicans GIM 2.194 assessed as inhibition of fungal growth by CLSI M27-A3 guidelines based method. The class given is functional.
Details: not given
`CN(Cc1ccc(N2CCN(Cc3cccc(I)c3)CC2)cc1)CC(O)(Cn1cncn1)c1ccc(F)cc1F` (stereo unspecified): the MIC80 stood at 0.025 µg/mL (≈ 0.038 µM).
For the compound `CCC(=O)N1CCN(c2ccc(CN(C)CC(O)(Cn3cncn3)c3ccc(F)cc3F)cc2)CC1` (stereo unspecified), the MIC80 was found to be 0.5 µg/mL (≈ 1 µM).
On the same count and under the same terms, as for `CN(Cc1ccc(N2CCN(Cc3cccc(Cl)c3)CC2)cc1)CC(O)(Cn1cncn1)c1ccc(F)cc1F` (stereo unspecified), the figure is 0.013 µg/mL (≈ 0.0229 µM); as for `CN(Cc1ccc(N2CCN(Cc3cccc(F)c3)CC2)cc1)CC(O)(Cn1cncn1)c1ccc(F)cc1F` (stereo unspecified), 0.025 µg/mL (≈ 0.0454 µM); as for `CN(Cc1ccc(N2CCN(Cc3ccc(-c4ccccc4)cc3)CC2)cc1)CC(O)(Cn1cncn1)c1ccc(F)cc1F` (stereo unspecified), 0.025 µg/mL (≈ 0.0411 µM).
Same read-out and setting: as for `CN(Cc1ccc(N2CCN(Cc3ccc(Br)cc3)CC2)cc1)CC(O)(Cn1cncn1)c1ccc(F)cc1F` (stereo unspecified), the figure is 0.025 µg/mL (≈ 0.0409 µM).

The next assay deals with Candida tropicalis. As to the kind of experiment: Antifungal activity against Candida tropicalis GIM 2.183 assessed as inhibition of fungal growth by CLSI M27-A3 guidelines based method. The class given is functional.
Details: not given
Consider `CN(Cc1ccc(N2CCN(Cc3cccc(I)c3)CC2)cc1)CC(O)(Cn1cncn1)c1ccc(F)cc1F` (stereo unspecified), for which the MIC80 is 0.013 µg/mL (≈ 0.0197 µM).
Same read-out and setting: as for `CCC(=O)N1CCN(c2ccc(CN(C)CC(O)(Cn3cncn3)c3ccc(F)cc3F)cc2)CC1` (stereo unspecified), the figure is 0.5 µg/mL (≈ 1 µM); as for `CN(Cc1ccc(N2CCN(Cc3cccc(Cl)c3)CC2)cc1)CC(O)(Cn1cncn1)c1ccc(F)cc1F` (stereo unspecified), 0.013 µg/mL (≈ 0.0229 µM); as for `CN(Cc1ccc(N2CCN(Cc3cccc(F)c3)CC2)cc1)CC(O)(Cn1cncn1)c1ccc(F)cc1F` (stereo unspecified), 0.025 µg/mL (≈ 0.0454 µM).
Still for that read-out and setting: as for `CN(Cc1ccc(N2CCN(Cc3ccc(-c4ccccc4)cc3)CC2)cc1)CC(O)(Cn1cncn1)c1ccc(F)cc1F` (stereo unspecified), the figure is 0.013 µg/mL (≈ 0.0214 µM).
Same read-out and setting: for `CN(Cc1ccc(N2CCN(Cc3ccc(Br)cc3)CC2)cc1)CC(O)(Cn1cncn1)c1ccc(F)cc1F` (stereo unspecified) the value was 0.025 µg/mL (≈ 0.0409 µM).

A further assay has as its system Candida parapsilosis. As to the kind of experiment: Antifungal activity against Candida parapsilosis GIM 2.190 assessed as inhibition of fungal growth by CLSI M27-A3 guidelines based method. In kind it is functional. As to conditions: Lodderomyces parapsilosis.
Take `CN(Cc1ccc(N2CCN(Cc3cccc(I)c3)CC2)cc1)CC(O)(Cn1cncn1)c1ccc(F)cc1F` (stereo unspecified): the MIC80 amounted to 0.025 µg/mL (≈ 0.038 µM).
On the same count and under the same terms, for `CCC(=O)N1CCN(c2ccc(CN(C)CC(O)(Cn3cncn3)c3ccc(F)cc3F)cc2)CC1` (stereo unspecified) the value was 0.1 µg/mL (≈ 0.201 µM); for `CN(Cc1ccc(N2CCN(Cc3cccc(Cl)c3)CC2)cc1)CC(O)(Cn1cncn1)c1ccc(F)cc1F` (stereo unspecified), 0.006 µg/mL (≈ 0.0106 µM).
Same read-out and setting: as for `CN(Cc1ccc(N2CCN(Cc3cccc(F)c3)CC2)cc1)CC(O)(Cn1cncn1)c1ccc(F)cc1F` (stereo unspecified), the figure is 0.025 µg/mL (≈ 0.0454 µM); as for `CN(Cc1ccc(N2CCN(Cc3ccc(-c4ccccc4)cc3)CC2)cc1)CC(O)(Cn1cncn1)c1ccc(F)cc1F` (stereo unspecified), 0.025 µg/mL (≈ 0.0411 µM); as for `CN(Cc1ccc(N2CCN(Cc3ccc(Br)cc3)CC2)cc1)CC(O)(Cn1cncn1)c1ccc(F)cc1F` (stereo unspecified), 0.05 µg/mL (≈ 0.0818 µM).

The next assay relates to Nakaseomyces glabratus. As to the kind of experiment: Antifungal activity against Candida glabrata assessed as inhibition of fungal growth by CLSI M27-A3 guidelines based method.
Details: not given
The class given is functional.
Consider `CN(Cc1ccc(N2CCN(Cc3cccc(I)c3)CC2)cc1)CC(O)(Cn1cncn1)c1ccc(F)cc1F` (stereo unspecified), for which the MIC80 worked out at 0.4 µg/mL (≈ 0.607 µM).
The same measure, in the same setting: for `CCC(=O)N1CCN(c2ccc(CN(C)CC(O)(Cn3cncn3)c3ccc(F)cc3F)cc2)CC1` (stereo unspecified) the value was 16 µg/mL (≈ 32.1 µM).
Still for that read-out and setting: as for `CN(Cc1ccc(N2CCN(Cc3cccc(Cl)c3)CC2)cc1)CC(O)(Cn1cncn1)c1ccc(F)cc1F` (stereo unspecified), the figure is 0.2 µg/mL (≈ 0.353 µM); as for `CN(Cc1ccc(N2CCN(Cc3cccc(F)c3)CC2)cc1)CC(O)(Cn1cncn1)c1ccc(F)cc1F` (stereo unspecified), 1.6 µg/mL (≈ 2.91 µM); as for `CN(Cc1ccc(N2CCN(Cc3ccc(-c4ccccc4)cc3)CC2)cc1)CC(O)(Cn1cncn1)c1ccc(F)cc1F` (stereo unspecified), 0.4 µg/mL (≈ 0.657 µM).
Still for that read-out and setting: as for `CN(Cc1ccc(N2CCN(Cc3ccc(Br)cc3)CC2)cc1)CC(O)(Cn1cncn1)c1ccc(F)cc1F` (stereo unspecified), the figure is 0.4 µg/mL (≈ 0.654 µM).

A further assay relates to Pichia kudriavzevii. As to the kind of experiment: Antifungal activity against Candida krusei GIM 2.1 assessed as inhibition of fungal growth by CLSI M27-A3 guidelines based method.
Details: not given
In kind it is functional.
As for `CN(Cc1ccc(N2CCN(Cc3cccc(I)c3)CC2)cc1)CC(O)(Cn1cncn1)c1ccc(F)cc1F` (stereo unspecified), the MIC80 came out at 0.2 µg/mL (≈ 0.304 µM).
Same read-out and setting: for `CCC(=O)N1CCN(c2ccc(CN(C)CC(O)(Cn3cncn3)c3ccc(F)cc3F)cc2)CC1` (stereo unspecified) the value was 16 µg/mL (≈ 32.1 µM).
The same measure, in the same setting: for `CN(Cc1ccc(N2CCN(Cc3cccc(Cl)c3)CC2)cc1)CC(O)(Cn1cncn1)c1ccc(F)cc1F` (stereo unspecified) the value was 0.1 µg/mL (≈ 0.176 µM); for `CN(Cc1ccc(N2CCN(Cc3cccc(F)c3)CC2)cc1)CC(O)(Cn1cncn1)c1ccc(F)cc1F` (stereo unspecified), 0.4 µg/mL (≈ 0.726 µM).
On the same count and under the same terms, as for `CN(Cc1ccc(N2CCN(Cc3ccc(-c4ccccc4)cc3)CC2)cc1)CC(O)(Cn1cncn1)c1ccc(F)cc1F` (stereo unspecified), the figure is 0.2 µg/mL (≈ 0.329 µM); as for `CN(Cc1ccc(N2CCN(Cc3ccc(Br)cc3)CC2)cc1)CC(O)(Cn1cncn1)c1ccc(F)cc1F` (stereo unspecified), 0.1 µg/mL (≈ 0.164 µM).

In another assay the test system is Cryptococcus neoformans. As to the kind of experiment: Antifungal activity against Cryptococcus neoformans CGMCC 2.3161 assessed as inhibition of fungal growth by CLSI M27-A3 guidelines based method. The class given is functional.
Details: not given
For `CCC(=O)N1CCN(c2ccc(CN(C)CC(O)(Cn3cncn3)c3ccc(F)cc3F)cc2)CC1` (stereo unspecified), the MIC80 is 8 µg/mL (≈ 16 µM).
The same measure, in the same setting: for `CN(Cc1ccc(N2CCN(Cc3cccc(Cl)c3)CC2)cc1)CC(O)(Cn1cncn1)c1ccc(F)cc1F` (stereo unspecified) the value was 0.1 µg/mL (≈ 0.176 µM).
Same read-out and setting: as for `CN(Cc1ccc(N2CCN(Cc3cccc(F)c3)CC2)cc1)CC(O)(Cn1cncn1)c1ccc(F)cc1F` (stereo unspecified), the figure is 0.4 µg/mL (≈ 0.726 µM); as for `CN(Cc1ccc(N2CCN(Cc3ccc(-c4ccccc4)cc3)CC2)cc1)CC(O)(Cn1cncn1)c1ccc(F)cc1F` (stereo unspecified), 0.3 µg/mL (≈ 0.493 µM); as for `CN(Cc1ccc(N2CCN(Cc3ccc(Br)cc3)CC2)cc1)CC(O)(Cn1cncn1)c1ccc(F)cc1F` (stereo unspecified), 0.2 µg/mL (≈ 0.327 µM).
